Source: US8933039B2 (NPS Pharmaceuticals, Inc., priority 1995, dated 2015)
Non-standard residues stand in square brackets, D forms with d. Residues, ends and D or L forms follow the SMILES beside them. No end group written: not given here. Phg = N[C@H](C(=O)O)c1ccccc1; Nva = CCC[C@H](N)C(=O)O; βAla = NCCC(=O)O

Experiments:
[1] = test system: dipeptidyl peptidase IV (DPP-IV); assay: human placental DPP-IV (Calbiochem), 0.125 mU, added to test peptide in PBS at pH 7.4; settings: 37° C., up to 24 hours
CD1 mice = assay: Intestinotrophic activity assessment: small bowel weight in mice; format: in vivo; settings: for % Activity (small bowel inducing activity relative to native rat GLP-2(1-33) = 100%): mice, as Example 4; for % Increase in small bowel weight: CD1 mice, 2.5 μg peptide s.c. b.i.d. in PBS, sacrificed 10 or 14 days, relative to vehicle only
How it was run: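 Female CD1 mice, 6 weeks old (n=3-4/group), given 2.5 μg peptide s.c. b.i.d. in PBS; sacrificed 10 or 14 days later after ≥20 h fast. Small bowel (pylorus to cecum) weighed; percent change versus vehicle mice, also expressed relative to rat GLP-2(1-33) set as 100%.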

DPP-IV = DPP-IV (Homo sapiens, UniProt P27487); assay: Assay for resistance to dipeptidyl peptidase IV (RP-HPLC of cleavage product); settings: human, isolated human placental DPP-IV (dipeptidyl peptidase IV), pH 7.4, % Cleaved by DPP-IV, as Example 3: human placental DPP-IV, 37° C., PBS pH 7.4
Chain of DPP-IV (P27487 whole entry): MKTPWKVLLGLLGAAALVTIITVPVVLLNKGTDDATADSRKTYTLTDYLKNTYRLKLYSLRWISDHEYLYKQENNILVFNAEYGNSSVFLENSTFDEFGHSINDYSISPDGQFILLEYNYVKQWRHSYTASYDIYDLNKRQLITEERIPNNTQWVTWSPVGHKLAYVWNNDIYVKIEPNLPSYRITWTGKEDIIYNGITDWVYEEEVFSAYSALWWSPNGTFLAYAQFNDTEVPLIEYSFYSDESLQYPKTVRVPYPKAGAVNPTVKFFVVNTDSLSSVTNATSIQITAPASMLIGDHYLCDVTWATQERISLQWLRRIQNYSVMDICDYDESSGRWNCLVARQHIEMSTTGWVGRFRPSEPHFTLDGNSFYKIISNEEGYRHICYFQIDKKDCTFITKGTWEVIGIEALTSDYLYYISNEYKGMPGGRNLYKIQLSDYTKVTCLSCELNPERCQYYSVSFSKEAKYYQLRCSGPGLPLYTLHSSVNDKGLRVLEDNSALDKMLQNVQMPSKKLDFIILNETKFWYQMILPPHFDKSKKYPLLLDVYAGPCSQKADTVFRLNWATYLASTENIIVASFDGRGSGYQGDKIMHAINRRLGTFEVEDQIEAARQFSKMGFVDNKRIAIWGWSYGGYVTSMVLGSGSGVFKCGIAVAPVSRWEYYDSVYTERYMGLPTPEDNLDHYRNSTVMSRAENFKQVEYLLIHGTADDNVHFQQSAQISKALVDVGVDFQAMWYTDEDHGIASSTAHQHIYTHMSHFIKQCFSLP

not cleaved [1] | Molecule | other results
0% cleaved by DPP-IV | [Gly2]hGLP-2(1-33) | –
0% cleaved by DPP-IV | Ac-ratGLP-2(1-33) (Ac-HADGSFSDEMNTILDNLATRDFINWLIQTKITD-OH) | –
0% cleaved by DPP-IV | [Ala1,Gly2]hGLP-2(1-33) (H-AGDGSFSDEMNTILDNLAARDFINWLIQTKITD-OH) | –
0% cleaved by DPP-IV | [His2]hGLP-2(1-33) (H-HHDGSFSDEMNTILDNLAARDFINWLIQTKITD-OH) | –
0% cleaved by DPP-IV | [Gly2,Ala5]hGLP-2(1-33) (H-HGDGAFSDEMNTILDNLAARDFINWLIQTKITD-OH) | –
0% cleaved by DPP-IV | [Pro1]hGLP-2(1-33) (H-PADGSFSDEMNTILDNLAARDFINWLIQTKITD-OH) | –
0% cleaved by DPP-IV | [Arg-2,Arg-1]ratGLP-2(2-33) | –
0% cleaved by DPP-IV | [Asn2]hGLP-2(1-33) (H-HNDGSFSDEMNTILDNLAARDFINWLIQTKITD-OH) | –
0% cleaved by DPP-IV | [Gln2]hGLP-2(1-33) (H-HQDGSFSDEMNTILDNLAARDFINWLIQTKITD-OH) | –
0% cleaved by DPP-IV | [Phe2]hGLP-2(1-33) (H-HFDGSFSDEMNTILDNLAARDFINWLIQTKITD-OH) | –
0% cleaved by DPP-IV | [Asp2]hGLP-2(1-33) (H-HDDGSFSDEMNTILDNLAARDFINWLIQTKITD-OH) | –
0% cleaved by DPP-IV | [Tyr1, Gly2]hGLP-2(1-33) (H-YGDGSFSDEMNTILDNLAARDFINWLIQTKITD-OH) | –
0% cleaved by DPP-IV | [Asp1]hGLP-2(1-33) (H-DADGSFSDEMNTILDNLAARDFINWLIQTKITD-OH) | –
0% cleaved by DPP-IV | [bAla2]hGLP-2(1-33) (H-H[βAla]DGSFSDEMNTILDNLAARDFINWLIQTKITD-OH; SMILES CC[C@H](C)[C@H](NC(=O)[C@H](Cc1ccccc1)NC(=O)[C@H](CC(=O)O)NC(=O)[C@H](CCCNC(=N)N)NC(=O)[C@H](C)NC(=O)[C@H](C)NC(=O)[C@H](CC(C)C)NC(=O)[C@H](CC(N)=O)NC(=O)[C@H](CC(=O)O)NC(=O)[C@H](CC(C)C)NC(=O)[C@@H](NC(=O)[C@@H](NC(=O)[C@H](CC(N)=O)NC(=O)[C@H](CCSC)NC(=O)[C@H](CCC(=O)O)NC(=O)[C@H](CC(=O)O)NC(=O)[C@H](CO)NC(=O)[C@H](Cc1ccccc1)NC(=O)[C@H](CO)NC(=O)CNC(=O)[C@H](CC(=O)O)NC(=O)CCNC(=O)[C@@H](N)Cc1c[nH]cn1)[C@@H](C)O)[C@@H](C)CC)C(=O)N[C@@H](CC(N)=O)C(=O)N[C@@H](Cc1c[nH]c2ccccc12)C(=O)N[C@@H](CC(C)C)C(=O)N[C@H](C(=O)N[C@@H](CCC(N)=O)C(=O)N[C@H](C(=O)N[C@@H](CCCCN)C(=O)N[C@H](C(=O)N[C@H](C(=O)N[C@@H](CC(=O)O)C(=O)O)[C@@H](C)O)[C@@H](C)CC)[C@@H](C)O)[C@@H](C)CC) | –

Second part, the molecule before the results:

Molecule | not cleaved [1] | other results
[Met2]hGLP-2(1-33) (H-HMDGSFSDEMNTILDNLAARDFINWLIQTKITD-OH) | 0% cleaved by DPP-IV | –
[PhGly2]hGLP-2(1-33) (H-H[Phg]DGSFSDEMNTILDNLAARDFINWLIQTKITD-OH; SMILES CC[C@H](C)[C@H](NC(=O)[C@H](Cc1ccccc1)NC(=O)[C@H](CC(=O)O)NC(=O)[C@H](CCCNC(=N)N)NC(=O)[C@H](C)NC(=O)[C@H](C)NC(=O)[C@H](CC(C)C)NC(=O)[C@H](CC(N)=O)NC(=O)[C@H](CC(=O)O)NC(=O)[C@H](CC(C)C)NC(=O)[C@@H](NC(=O)[C@@H](NC(=O)[C@H](CC(N)=O)NC(=O)[C@H](CCSC)NC(=O)[C@H](CCC(=O)O)NC(=O)[C@H](CC(=O)O)NC(=O)[C@H](CO)NC(=O)[C@H](Cc1ccccc1)NC(=O)[C@H](CO)NC(=O)CNC(=O)[C@H](CC(=O)O)NC(=O)[C@@H](NC(=O)[C@@H](N)Cc1c[nH]cn1)c1ccccc1)[C@@H](C)O)[C@@H](C)CC)C(=O)N[C@@H](CC(N)=O)C(=O)N[C@@H](Cc1c[nH]c2ccccc12)C(=O)N[C@@H](CC(C)C)C(=O)N[C@H](C(=O)N[C@@H](CCC(N)=O)C(=O)N[C@H](C(=O)N[C@@H](CCCCN)C(=O)N[C@H](C(=O)N[C@H](C(=O)N[C@@H](CC(=O)O)C(=O)O)[C@@H](C)O)[C@@H](C)CC)[C@@H](C)O)[C@@H](C)CC) | 0% cleaved by DPP-IV | –
[Thr^19]hGLP-2(1-33) (H-HADGSFSDEMNTILDNLATRDFINWLIQTKITD-OH) | – | cleaved bond [1]: Ala2-Asp3, 24 hours
[Arg-l]ratGLP-2(-1-33) (H-RHADGSFSDEMNTILDNLATRDFINWLIQTKITD-OH) | 0% cleaved by DPP-IV | –
[Gly2,Ala3]hGLP-2(1-33) (H-HGAGSFSDEMNTILDNLAARDFINWLIQTKITD-OH) | 0% cleaved by DPP-IV | –
[Glu2]hGLP-2(1-33) (H-HEDGSFSDEMNTILDNLAARDFINWLIQTKITD-OH) | 0% cleaved by DPP-IV | –
[Ile2]hGLP-2(1-33) (H-HIDGSFSDEMNTILDNLAARDFINWLIQTKITD-OH) | 0% cleaved by DPP-IV | –
[Pro3]hGLP-2(1-33) (H-HAPGSFSDEMNTILDNLAARDFINWLIQTKITD-OH) | 0% cleaved by DPP-IV | –
[Nval2]hGLP-2(1-33) (H-H[Nva]DGSFSDEMNTILDNLAARDFINWLIQTKITD-OH; SMILES CCC[C@H](NC(=O)[C@@H](N)Cc1c[nH]cn1)C(=O)N[C@@H](CC(=O)O)C(=O)NCC(=O)N[C@@H](CO)C(=O)N[C@@H](Cc1ccccc1)C(=O)N[C@@H](CO)C(=O)N[C@@H](CC(=O)O)C(=O)N[C@@H](CCC(=O)O)C(=O)N[C@@H](CCSC)C(=O)N[C@@H](CC(N)=O)C(=O)N[C@H](C(=O)N[C@H](C(=O)N[C@@H](CC(C)C)C(=O)N[C@@H](CC(=O)O)C(=O)N[C@@H](CC(N)=O)C(=O)N[C@@H](CC(C)C)C(=O)N[C@@H](C)C(=O)N[C@@H](C)C(=O)N[C@@H](CCCNC(=N)N)C(=O)N[C@@H](CC(=O)O)C(=O)N[C@@H](Cc1ccccc1)C(=O)N[C@H](C(=O)N[C@@H](CC(N)=O)C(=O)N[C@@H](Cc1c[nH]c2ccccc12)C(=O)N[C@@H](CC(C)C)C(=O)N[C@H](C(=O)N[C@@H](CCC(N)=O)C(=O)N[C@H](C(=O)N[C@@H](CCCCN)C(=O)N[C@H](C(=O)N[C@H](C(=O)N[C@@H](CC(=O)O)C(=O)O)[C@@H](C)O)[C@@H](C)CC)[C@@H](C)O)[C@@H](C)CC)[C@@H](C)CC)[C@@H](C)CC)[C@@H](C)O) | 0% cleaved by DPP-IV | –
[Ser2]hGLP-2(1-33) (H-HSDGSFSDEMNTILDNLAARDFINWLIQTKITD-OH) | 0% cleaved by DPP-IV | –
[Gly2, Arg34]hGLP-2(1-34) | 0% cleaved by DPP-IV | –
[Val2]GLP-2(1-33) | 0% cleaved by DPP-IV | –
[Gly2,Ala4]hGLP-2(1-33) (H-HGDASFSDEMNTILDNLAARDFINWLIQTKITD-OH) | 0% cleaved by DPP-IV | –
[Tyr2]hGLP-2(1-33) (H-HYDGSFSDEMNTILDNLAARDFINWLIQTKITD-OH) | 0% cleaved by DPP-IV | –
CCC[C@H](NC(=O)[C@@H](N)Cc1c[nH]cn1)C(=O)N[C@@H](CC(=O)O)C(=O)NCC(=O)N[C@@H](CO)C(=O)N[C@@H](Cc1ccccc1)C(=O)N[C@@H](CO)C(=O)N[C@@H](CC(=O)O)C(=O)N[C@@H](CCC(=O)O)C(=O)N[C@@H](CCSC)C(=O)N[C@@H](CC(N)=O)C(=O)N[C@H](C(=O)N[C@H](C(=O)N[C@@H](CC(C)C)C(=O)N[C@@H](CC(=O)O)C(=O)N[C@@H](CC(N)=O)C(=O)N[C@@H](CC(C)C)C(=O)N[C@@H](C)C(=O)N[C@@H](C)C(=O)N[C@@H](CCCNC(=N)N)C(=O)N[C@@H](CC(=O)O)C(=O)N[C@@H](Cc1ccccc1)C(=O)N[C@H](C(=O)N[C@@H](CC(N)=O)C(=O)N[C@@H](Cc1c[nH]c2ccccc12)C(=O)N[C@@H](CC(C)C)C(=O)N[C@H](C(=O)N[C@@H](CCC(N)=O)C(=O)N[C@H](C(=O)N[C@@H](CCCCN)C(=O)N[C@H](C(=O)N[C@H](C(=O)N[C@@H](CC(=O)O)C(=O)O)[C@@H](C)O)[C@@H](C)CC)[C@@H](C)O)[C@@H](C)CC)[C@@H](C)CC)[C@@H](C)CC)[C@@H](C)O [[Nval2]hGLP-2(1-33)] (H-H[Nva]DGSFSDEMNTILDNLAARDFINWLIQTKITD-OH) | – | % Activity (small bowel inducing activity relative to native rat GLP-2(1-33) = 100%) (CD1 mice): 111%; metabolised at 24 h, 0.19 mg/ml (DPP-IV): 0%
H-HAPGSFSDEMNTILDNLAARDFINWLIQTKITD-OH [[Pro3]hGLP-2(1-33)] | – | % Activity (small bowel inducing activity relative to native rat GLP-2(1-33) = 100%) (CD1 mice): 140%; metabolised at 24 h, 0.19 mg/ml (DPP-IV): 0%
H-HADASFSDEMNTILDNLATRDFINWLIQTKITD-OH [[Ala4]ratGLP-2(1-33)] | – | % Increase in small bowel weight (CD1 mice): 30%; % Activity (small bowel inducing activity relative to native rat GLP-2(1-33) = 100%) (CD1 mice): 59%; metabolised at 24 h, 0.19 mg/ml (DPP-IV): 72%
HVDGSFSDEMNTILDNLATRDFINWLIQTKITD [[Val2]GLP-2(1-33)] | – | % Increase in small bowel weight (CD1 mice): 65%; % Activity (small bowel inducing activity relative to native rat GLP-2(1-33) = 100%) (CD1 mice): 145%; metabolised at 24 h, 0.19 mg/ml (DPP-IV): 0%
